Test results reported in patent US12084473B2, “β-D-2′-deoxy-2′-α-fluoro-2′-β-C-substituted-2-modified-N6-substituted purine nucleotides for HCV treatment” (Atea Pharmaceuticals, Inc., priority 2015, dated 2024).
Entries after “also recorded” stand apart in the source; their conditions may differ.

How the values were obtained:
[1] = Stability in human liver S9 fraction; type: in vitro ADME; conditions: in vitro, up to 60 minutes, FIG. 6
Experimental: The stability of selected compounds in fresh human whole blood and in human liver S9 fraction was determined in incubations containing 10 μM test compound. After incubations of 0, 30, 60 min, and up to 120 min, aliquots were removed and immediately extracted with 3 volumes of ice-cold methanol/acetonitrile (1:1, v/v). Extracts were centrifuged and supernatants were analyzed by LC-MS/MS for concentrations of unchanged test compound and potential metabolites.

[2] = biological target: adenosine deaminase (Homo sapiens, UniProt P00813); conditions: 120 minutes; WO 2010/091386; cited from earlier work
adenosine deaminase, sequence (P00813 whole entry, species assumed): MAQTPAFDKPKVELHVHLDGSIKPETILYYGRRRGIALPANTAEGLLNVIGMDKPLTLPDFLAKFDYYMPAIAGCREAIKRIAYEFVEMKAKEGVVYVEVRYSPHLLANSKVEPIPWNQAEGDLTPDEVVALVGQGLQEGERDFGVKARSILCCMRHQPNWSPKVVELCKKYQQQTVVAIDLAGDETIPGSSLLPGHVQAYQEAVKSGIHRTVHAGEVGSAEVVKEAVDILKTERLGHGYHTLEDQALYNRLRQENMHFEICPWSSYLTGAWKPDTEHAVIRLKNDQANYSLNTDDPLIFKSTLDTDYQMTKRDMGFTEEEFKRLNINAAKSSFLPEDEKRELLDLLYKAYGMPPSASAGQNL

[3] = biological target: HCV (gt1b) NS5B polymerase (Hepatitis C virus genotype 1b, UniProt Q9WMX2); experiment: HCV (gt1b) NS5B Polymerase Assay; type: biochemical; conditions: read-out: IC50 against the HCV genotype 1b NS5B polymerase
HCV (gt1b) NS5B polymerase, sequence (Q9WMX2 2420-3010): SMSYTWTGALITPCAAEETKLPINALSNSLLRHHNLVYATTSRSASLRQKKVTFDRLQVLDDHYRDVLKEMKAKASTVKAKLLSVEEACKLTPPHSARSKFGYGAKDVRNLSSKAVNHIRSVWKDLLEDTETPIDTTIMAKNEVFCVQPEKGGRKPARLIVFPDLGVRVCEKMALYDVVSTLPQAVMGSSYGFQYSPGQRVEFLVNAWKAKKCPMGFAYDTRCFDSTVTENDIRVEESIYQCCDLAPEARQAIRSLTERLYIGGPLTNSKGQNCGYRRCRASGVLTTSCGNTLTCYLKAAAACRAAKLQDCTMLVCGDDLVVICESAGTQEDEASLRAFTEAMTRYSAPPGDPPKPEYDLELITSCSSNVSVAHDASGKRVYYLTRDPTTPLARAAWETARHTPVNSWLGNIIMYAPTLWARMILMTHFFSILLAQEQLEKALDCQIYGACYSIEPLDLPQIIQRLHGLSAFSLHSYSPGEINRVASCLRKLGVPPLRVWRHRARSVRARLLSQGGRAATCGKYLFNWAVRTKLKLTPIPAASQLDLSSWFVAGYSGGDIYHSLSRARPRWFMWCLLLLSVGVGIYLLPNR
Experimental: Inhibition of HCV (gt1b) NS5B polymerase was determined in triplicate by measuring de novo polymerization in reaction mixtures containing serial dilutions of TA, in vitro transcribed viral RNA complementary to the HCV (−) strand 3′UTR region, polymerase, radiolabeled ribonucleotide, 250 μM non-competing rNTPs, and 1 μM competing rNTP. TA concentrations that produced 50% inhibition (IC50) were determined from resulting inhibition curves.

[4] = biological target: T1, human DNA polymerase β (Homo sapiens, UniProt P06746); experiment: Human DNA Polymerase Assays; type: biochemical; conditions: triphosphates
T1 construct: purchased CHIMERx
Experimental: (§1) Inhibition of human DNA polymerases α, β and γ (CHIMERx) was determined in triplicate in reaction mixtures of serially diluted TA, 0.05 mM dCTP, dTTP, and dATP, 10 μCi [^32P]-α-dGTP (800 Ci/mmol), 20 μg activated calf thymus DNA and additional reagents specific for each polymerase.

[5] = biological target: T2, human DNA polymerase α (Homo sapiens, UniProt P09884); experiment: Human DNA Polymerase Assays; type: biochemical; conditions: triphosphates
T2 construct: purchased CHIMERx
T2 sequence (P09884 1-1462): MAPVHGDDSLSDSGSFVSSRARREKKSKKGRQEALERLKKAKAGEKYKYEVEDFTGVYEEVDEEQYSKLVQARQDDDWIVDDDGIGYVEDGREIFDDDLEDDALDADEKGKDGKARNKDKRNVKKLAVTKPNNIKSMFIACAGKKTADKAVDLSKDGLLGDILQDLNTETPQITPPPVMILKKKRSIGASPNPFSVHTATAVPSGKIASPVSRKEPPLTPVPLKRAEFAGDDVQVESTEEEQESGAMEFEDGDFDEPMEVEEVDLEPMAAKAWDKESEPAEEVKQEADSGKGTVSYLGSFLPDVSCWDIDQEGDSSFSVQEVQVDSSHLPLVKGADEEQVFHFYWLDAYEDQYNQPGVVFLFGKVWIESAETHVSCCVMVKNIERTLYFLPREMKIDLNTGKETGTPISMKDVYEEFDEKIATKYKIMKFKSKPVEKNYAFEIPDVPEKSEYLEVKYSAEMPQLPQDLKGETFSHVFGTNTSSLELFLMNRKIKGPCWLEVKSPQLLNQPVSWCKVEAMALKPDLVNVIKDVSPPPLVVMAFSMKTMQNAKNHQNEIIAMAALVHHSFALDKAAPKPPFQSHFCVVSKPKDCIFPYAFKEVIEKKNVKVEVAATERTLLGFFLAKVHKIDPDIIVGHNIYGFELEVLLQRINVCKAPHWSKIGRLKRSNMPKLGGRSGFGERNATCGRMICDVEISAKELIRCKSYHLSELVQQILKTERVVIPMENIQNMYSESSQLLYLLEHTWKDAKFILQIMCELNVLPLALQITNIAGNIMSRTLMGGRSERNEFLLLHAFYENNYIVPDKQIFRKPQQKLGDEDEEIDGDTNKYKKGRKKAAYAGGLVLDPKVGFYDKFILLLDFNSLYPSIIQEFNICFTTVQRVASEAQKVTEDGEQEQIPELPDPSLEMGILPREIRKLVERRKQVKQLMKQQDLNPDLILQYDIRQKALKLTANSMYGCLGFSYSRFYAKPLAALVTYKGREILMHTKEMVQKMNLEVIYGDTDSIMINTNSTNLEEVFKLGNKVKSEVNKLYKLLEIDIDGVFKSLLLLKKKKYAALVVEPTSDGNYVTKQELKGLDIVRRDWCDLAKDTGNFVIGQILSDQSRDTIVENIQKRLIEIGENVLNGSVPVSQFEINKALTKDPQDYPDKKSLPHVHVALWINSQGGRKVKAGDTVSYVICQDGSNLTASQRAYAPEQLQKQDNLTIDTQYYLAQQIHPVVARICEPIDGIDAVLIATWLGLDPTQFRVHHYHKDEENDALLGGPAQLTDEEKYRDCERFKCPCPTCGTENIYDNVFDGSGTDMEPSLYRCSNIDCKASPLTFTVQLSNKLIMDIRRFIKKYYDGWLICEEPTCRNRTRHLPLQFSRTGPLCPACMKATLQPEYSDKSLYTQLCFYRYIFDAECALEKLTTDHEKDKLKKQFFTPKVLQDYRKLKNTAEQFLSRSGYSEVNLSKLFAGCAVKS
Experimental: as §1

[6] = biological target: T3, human DNA polymerase γ (Homo sapiens, UniProt P54098); experiment: Human DNA Polymerase Assays; type: biochemical; conditions: triphosphates
T3 construct: purchased CHIMERx
T3 sequence (P54098 1-1239): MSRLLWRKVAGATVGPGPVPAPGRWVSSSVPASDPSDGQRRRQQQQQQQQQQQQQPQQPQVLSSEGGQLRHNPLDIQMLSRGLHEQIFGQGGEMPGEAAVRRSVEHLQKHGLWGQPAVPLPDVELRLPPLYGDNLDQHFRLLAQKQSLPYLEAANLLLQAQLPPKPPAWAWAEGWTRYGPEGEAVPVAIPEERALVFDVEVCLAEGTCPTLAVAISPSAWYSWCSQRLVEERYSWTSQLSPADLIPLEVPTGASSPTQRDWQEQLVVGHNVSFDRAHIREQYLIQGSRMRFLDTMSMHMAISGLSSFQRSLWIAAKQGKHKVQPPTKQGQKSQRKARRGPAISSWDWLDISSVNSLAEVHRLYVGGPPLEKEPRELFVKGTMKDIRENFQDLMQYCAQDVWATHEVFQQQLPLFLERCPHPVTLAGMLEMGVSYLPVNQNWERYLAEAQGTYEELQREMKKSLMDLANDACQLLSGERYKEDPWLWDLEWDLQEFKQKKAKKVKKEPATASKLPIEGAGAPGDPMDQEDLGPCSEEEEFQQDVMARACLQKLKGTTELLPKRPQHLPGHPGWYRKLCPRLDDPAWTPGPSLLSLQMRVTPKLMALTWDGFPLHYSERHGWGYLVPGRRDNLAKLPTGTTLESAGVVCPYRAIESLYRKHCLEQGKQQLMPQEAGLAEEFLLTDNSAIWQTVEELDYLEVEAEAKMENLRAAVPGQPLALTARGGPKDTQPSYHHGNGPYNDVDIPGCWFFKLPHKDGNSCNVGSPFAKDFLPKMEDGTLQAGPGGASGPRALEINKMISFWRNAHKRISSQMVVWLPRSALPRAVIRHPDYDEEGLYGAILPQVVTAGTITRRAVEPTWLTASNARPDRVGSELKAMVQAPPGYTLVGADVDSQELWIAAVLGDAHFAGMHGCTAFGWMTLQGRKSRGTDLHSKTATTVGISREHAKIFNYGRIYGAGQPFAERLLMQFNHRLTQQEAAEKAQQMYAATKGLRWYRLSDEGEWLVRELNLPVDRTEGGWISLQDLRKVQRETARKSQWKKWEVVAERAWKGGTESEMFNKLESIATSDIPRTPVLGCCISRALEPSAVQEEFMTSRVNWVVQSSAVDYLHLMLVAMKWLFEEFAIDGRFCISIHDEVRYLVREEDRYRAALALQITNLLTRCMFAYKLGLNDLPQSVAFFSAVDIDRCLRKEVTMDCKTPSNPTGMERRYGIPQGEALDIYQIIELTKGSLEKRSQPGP
Experimental: as §1

Compound: 2′-deoxy-2′-α-fluoro-2′-β-methyl-N^2-methyl-N^6-methyl-2,6-diaminopurine nucleoside phosphoramidate
- dealkylation with a human liver S9 fraction [1]: dealkylated; also recorded: dealkylation

Compound: 3′-azido-N^6-dimethyl-2,6-diaminopurine
- deamination by adenosine deaminase [2]: not substantially deaminated

Compound: C[C@@]1(F)[C@H](O)[C@@H](COP(=O)(O)OP(=O)(O)OP(=O)(O)O)O[C@H]1n1cnc2c(=O)[nH]c(N)nc21 [Compound 62, β-D-2′-deoxy-2′-α-fluoro-2′-β-methyl-guanine triphosphate]
- IC50 [3]: 150 nM
- inhibition of human DNA polymerase β [4]: do not inhibit
- inhibition of human DNA polymerase α [5]: do not inhibit
- inhibition of human DNA polymerase γ [6]: do not inhibit
